Measured values as given in US20100280098A1, “RECEPTOR TARGETED OLIGONUCLEOTIDES” (priority 2007, published 2010).
“Also recorded” adds a separate entry of the source.

What was measured:
A375SM-Luc705-B cells [1] = experiment: Luciferase splice-correction assay with peptide-oligonucleotide conjugates; type: cell-based; conditions: for luciferase expression: dose-response and mismatch control studies, luciferase after 48 h
Protocol: Cell Lines and Plasmids: A375SM melanoma cells were obtained from Dr. J. Bear (University of North Carolina, Chapel Hill, N.C., United States of America), and were cultured in Dulbecco's minimum essential medium (DMEM; Invitrogen, Carlsbad, Calif., United States of America) supplemented with L-glutamine and 10% fetal bovine serum (FBS). Plasmid pLuc/705, containing an aberrant intron inserted into the firefly luciferase coding sequence, was obtained from Dr. R. Kole (University of North Carolina, Chapel Hill, N.C., United States of America). See Kang et al. (1998) Biochemistry, 37, 6235-6239. Stable transfectants were obtained by cotransfecting A375SM cells with one part of hygromycin resistant plasmid pcDNA3.1(+)/hygro (Invitrogen, Carlsbad, Calif., United States of America) and ten parts of pLuc/705 using LIPOFECTAMINE™ 2000 (Invitrogen, Carlsbad, Calif., United States of America) as per manufacturer's instructions. Selection was carried out in DMEM containing 200 μg/mL hygromycin and 10% FBS. The resulting pool of hygromycin resistant cells was referred to as A375SM-Luc705-B.
Oligonucleotide treatment and luciferase assay: A375SM-Luc705-B cells were plated on 12 well plates (at 1.0 or 1.5×10^5 cells per well in various experiments) in DMEM supplemented with 10% FBS. The following day, medium was changed to reduced serum OPTI-MEM I (Invitrogen, Carlsbad, Calif., United States of America). […] Four hours after treatment, 1% FBS was added to each well. Twenty four hours after oligonucleotide treatment, medium was replaced with DMEM containing 1% FBS, and at various times thereafter cell lysates were collected for luciferase assay.
Cells were usually harvested 48 hours after oligonucleotide treatment, or at times indicated in the figures, and activity determined using a Luciferase assay kit (Promega, Madison, Wis., United States of America). Measurements were performed on a Monolight 2010 instrument (Analytical Luminescence Laboratory, San Diego, Calif., United States of America).

A375SM-Luc705-B cells [2] = experiment: Luciferase splice-correction assay with albumin conjugates; type: cell-based
Protocol: Oligonucleotide Treatment of Cells and Luciferase Assay: A375SM-Luc705-B cells were seeded onto 12 well plates at 1×10^5 cells per well in medium containing 10% FBS. […] After 4 h of treatment, FBS was added to each well to 1%. After 24 h, cells were washed with DMEM medium containing 10% FBS and incubated in DMEM supplemented with 1% FBS for 48 h prior to harvest.

A375SM-Luc705-B cells [3] = experiment: Total cellular uptake of Tamra-labeled oligonucleotides (microfluorimeter); type: cell-based; conditions: for cell viability: 1-10 mM β-cyclodextrin, 0.2-20 μM cytochalasin D; for effect on uptake of the RGD-oligonucleotide conjugate: inhibitor 15 min before 100 nM RGD-623-Tamra, uptake after 4 h
Source text: (§1) Cell Uptake, Confocal Fluorescence Microscopy, and Flow Cytometry: Total cellular uptake of Tamra-labeled oligonucleotides was monitored using a Nanodrop microfluorimeter (Nanodrop Technologies, Wilmington, Del., United States of America). After treatment with oligonucleotides the cells were lysed in a mild non-ionic detergent buffer and the Tamra fluorescence (emission 583 nm) was quantitated based on a linear standard curve of unconjugated Tamra in buffer. Intracellular distribution of Tamra-labeled oligonucleotides was examined using an Olympus Confocal FV300 fluorescent microscope (Olympus America Inc., Center Valley, Pa., United States of America) with 60X-oil immersion objective, as previously described. See Astriab-Fisher et al. (2004) Biochem. Pharmacol., 68, 403-407. Expression levels of αvβ3 were monitored by immunostaining with an anti-human-αvβ3 monoclonal (Chemicon, Temecula, Calif., United States of America) followed by an Alexa 488 rabbit antimouse secondary antibody, with analysis by flow cytometry using a DakoCytomation (Glostrop, Denmark) machine.

A375SM-Luc705-B cells [4] = experiment: Subcellular distribution and co-localization by confocal fluorescence microscopy (peptide conjugate); type: cell-based; conditions: for co-localization with dextran / co-localization with transferrin: 2 h; for co-localization with dextran / co-localization with transferrin / co-localization with transferrin or dextran markers: live cells, 100 nM; for co-localization with transferrin or dextran markers: 24 h
Source text: as §1

A375SM-Luc705-B cells [5] = experiment: Total cellular accumulation of albumin conjugates (fluorimeter); type: cell-based; conditions: nontoxic concentrations, 30 min prior to 100 nM conjugate, 4 h
Protocol: Cellular Uptake and Confocal Microscopy: Cells were seeded onto either 12 well plates at 1×10^5 cells per well for cellular uptake measurements or in 12 well glass-bottom plates at 2×10^4 cells per well for live cell analysis by confocal microscopy. […], the cells were either lysed for measurement of Tamra fluorescence using a Nanodrop microfluorimeter (Nanodrop Technologies, Wilmington, Deleware, United States of America) or washed with DMEM containing 10% FBS and then placed in DMEM without phenol red, supplemented with 1% FBS, for confocal microscopy analysis. Co-localization of Tamra-labeled oligonucleotides with Alexa 488 labeled Transferrin or Dextran (Molecular Probes, Beaverton, Oreg., United States of America) in live cell was also examined by confocal microscopy. An Olympus confocal microscope with a 60× objective lens was used, and the data were processed using Fluoview software (Olympus, Center Valley, Pa., United States of America) as described in Example 1.

[6] = test system: αvβ3-positive M21+ human melanoma cells; experiment: Total cellular uptake in αvβ3-positive cells; type: cell-based; conditions: 12.5-100 nM
Source text: (§2) Results represent means and standard errors of triplicate determinations and are expressed as RFUs per microgram cell protein.
as §1

[7] = test system: αvβ3-negative M21− human melanoma cells; experiment: Total cellular uptake in αvβ3-negative cells; type: cell-based; conditions: 12.5-100 nM
Source text: as §2, §1

αvβ3 = experiment: Cell surface αvβ3 level by immunostaining and flow cytometry; type: cell-based, human; conditions: 200 nM, 24 h exposure
Protocol: Then, αvβ3 levels were determined by immunostaining with anti-αvβ3 antibody. […] The y axis of each panel indicates the number of cells, while the x axis indicates the log of fluorescence intensity.
as §1

A375SM-Luc705-B cells [8] = experiment: Short-term toxicity, viable cell count after 48 h (peptide conjugate); type: cell-based
Protocol: Toxicity Studies: Cells were treated with various concentrations of oligonucleotides or conjugates under the same conditions as used for the luciferase induction experiments. After 48 h in medium plus 1% FBS, cells were trypsinized and viable cells were counted in an electronic particle counter.

[9] = Re-dissolution of lyophilized conjugate in sterile water; type: physicochemical; conditions: after dialysis and lyophilization
Source text: The peptide conjugation reaction occurred between the maleimide of the bicyclic RGD peptide and the 5′ thiol (—SH) of the oligonucleotide (2). The reaction proceeded efficiently and more than 95% of the starting oligonucleotide (2) was converted into conjugates with bicyclic RGD. The conjugates were purified by ion-exchange chromatography (Resource™ Q column, GE Healthcare, Chalfont St. Giles, United Kingdom) under highly denaturing conditions to avoid any sort of precipitation, although this was not expected to be a problem for this type of peptide. […] Similar approaches were used for the preparation of other oligonucleotides and conjugates. In each case the structure of the final product was confirmed by MALDI-TOF mass spectroscopy.

[10] = listed as RGD-623-Tamra conjugate

## 5′-GTAATTATTTATAATCGTCC-Tamra-3′ [5MM623-Tamra]
A375SM-Luc705-B cells [1]
  luciferase expression: failed to produce an increase in luciferase expression

## 5′-GTTATTCTTTAGAATGGTGC-3′ (antisense GTTATTCTTTAGAATGGTGC; all 2'-O-methyl, all phosphorothioate, T or U not given here; further chemistry not fully specified) [compound 623]
A375SM-Luc705-B cells [1]; RGD conjugate or lipofection, concentrations up to 75 nM
  influence of the Tamra fluorophore on the action of 623: did not affect the action of 623
A375SM-Luc705-B cells [1]; concentrations above 100 nM
  influence of the Tamra fluorophore on the action of 623: slight augmentation of effect by Tamra
A375SM-Luc705-B cells [2]; 25-200 nM, 72 h
  luciferase activity: did not cause a significant increase in luciferase activity

## CC(C)[C@@H]1NC(=O)[C@@H](Cc2ccccc2)NC(=O)[C@H](CC(=O)O)NC(=O)CNC(=O)[C@H](CCCN=C(N)N)NC1=O [RGDfV]
A375SM-Luc705-B cells [1]; 0.1-100 μM peptide 30 min prior to 200 nM conjugate, 48 h
  inhibition of the effect of RGD-623-Tamra on luciferase expression: progressive inhibition
A375SM-Luc705-B cells [3]; excess peptide
  effect of co-incubation on the increased uptake of the RGD-conjugate: could be blocked
A375SM-Luc705-B cells [4]; data not shown
  effect of co-incubation on cell associated fluorescence of RGD-623-Tamra conjugate: substantially reduced total cell associated fluorescence
A375SM-Luc705-B cells [2]; at the concentrations used
  toxicity of the blocking peptide: does not cause cell detachment or other obvious toxicity
A375SM-Luc705-B cells [2]; excess peptide (0.1-10 μM) 30 min prior to 100 nM conjugate, 48 h
  effect on the ability of the RPA-623 conjugate to activate luciferase: completely blocks
A375SM-Luc705-B cells [5]
  effect on cellular accumulation of RPA-623-Tamra: inhibited

## C=C1[C@@H](C)[C@H]2[C@H](Cc3ccccc3)NC(=O)[C@]23[C@H](OC(C)=O)/C=C/[C@@](C)(O)C(=O)[C@@H](C)C/C=C/[C@H]3[C@@H]1O [cytochalasin D]
A375SM-Luc705-B cells [3]
  cell viability: No loss of cell viability was detected
  effect on uptake of the RGD-oligonucleotide conjugate: block the uptake
A375SM-Luc705-B cells [3]; highest concentration
  cell morphology: caused some cell rounding
A375SM-Luc705-B cells [5]
  effect on cellular accumulation of RPA-623-Tamra: inhibited

## OC[C@H]1O[C@@H]2O[C@H]3[C@H](O)[C@@H](O)[C@@H](O[C@H]4[C@H](O)[C@@H](O)[C@@H](O[C@H]5[C@H](O)[C@@H](O)[C@@H](O[C@H]6[C@H](O)[C@@H](O)[C@@H](O[C@H]7[C@H](O)[C@@H](O)[C@@H](O[C@H]8[C@H](O)[C@@H](O)[C@@H](O[C@H]1[C@H](O)[C@H]2O)O[C@@H]8CO)O[C@@H]7CO)O[C@@H]6CO)O[C@@H]5CO)O[C@@H]4CO)O[C@@H]3CO [β-cyclodextrin]
A375SM-Luc705-B cells [3]
  cell viability: No loss of cell viability was detected
  effect on uptake of the RGD-oligonucleotide conjugate: block the uptake
A375SM-Luc705-B cells [5]
  effect on cellular accumulation of RPA-623-Tamra: inhibited

## Bivalent-RGD-Mal-S—(CH2)6-5MM623-Tamra
A375SM-Luc705-B cells [1]
  luciferase expression: failed to produce an increase in luciferase expression

## BivalentRGD-Mal-S—(CH2)6-623-Tamra [RGD-623-Tamra]
A375SM-Luc705-B cells [1]
  concentration dependence of the luciferase effect: rises rapidly between zero and 100 nM and then begins to plateau
  luciferase expression: produced a significant increase in luciferase expression
A375SM-Luc705-B cells [1]; 200 nM, 48 h after removal of the oligonucleotide
  time of maximum effect on luciferase expression: 72 h
A375SM-Luc705-B cells [1]; 24-120 h, conjugate 200 nM, complex 100 nM
  time course of the effect on luciferase expression: rose gradually with time
A375SM-Luc705-B cells [1]; 48 h
  concentration at which substantial effects on luciferase were observed: 50 nM
  low concentration at which significant effects were still observed: 5 nM
A375SM-Luc705-B cells [1]; higher concentrations of RGD-623, complex at 100 nM oligonucleotide
  effect on luciferase relative to 623/cationic lipid complex: approximately 50%
A375SM-Luc705-B cells [3]; 12.5, 50 or 100 nM, 4 h
  total cellular uptake compared to unconjugated oligonucleotide: ~2 fold
[6]
  uptake by M21+ cells as compared to M21− cells: about 3 times
[7]
  uptake in M21− cells as compared to 623-Tamra control: slightly greater uptake
αvβ3
  level of surface αvβ3 expression: no effect
αvβ3; listed as RGD-623 conjugate
  level of surface αvβ3 expression: lack of down-regulation of αvβ3
A375SM-Luc705-B cells [4]
  co-localization with dextran: Substantial overlap
  co-localization with transferrin: no overlap
  co-localization with transferrin or dextran markers: Substantial overlap
A375SM-Luc705-B cells [4]; [10]
  co-localization with dextran: significant co-localization
  co-localization with transferrin: no co-localization
  co-localization with transferrin or dextran markers: substantial co-localization
A375SM-Luc705-B cells [4]; between 2 and 6 h, fixed permeabilized cells, 50 nM
  co-localization with caveolin-1: significant co-localization
A375SM-Luc705-B cells [4]; early (6 h), fixed cells, 50 nM
  co-localization with αvβ3: Early co-localization
A375SM-Luc705-B cells [4]; fixed cells
  co-localization with other markers (EAA1, LAMP1, clathrin): No significant co-localization
A375SM-Luc705-B cells [4]; late (24 h), fixed cells, 50 nM
  co-localization with trans-Golgi marker TG230: some co-loacalization
A375SM-Luc705-B cells [4]; living cells, 200 nM, complex 100 nM
  cellular uptake seen by confocal microscopy: substantial cellular uptake was observed
A375SM-Luc705-B cells [4]; living cells, 200 nM, complex 100 nM, listed as RGD-623-Tamra conjugate
  nuclear fluorescence: no readily observable nuclear fluorescence; also recorded: generally free of fluorescence
A375SM-Luc705-B cells [8]; concentration range needed for splice correction
  tolerability by cells: well-tolerated by cells
A375SM-Luc705-B cells [8]; concentrations up to 1000 nM, 48 h
  short-term toxicity (viable cells): little effect
A375SM-Luc705-B cells [8]; higher concentrations
  cell loss: did not result in significant cell loss
  cell rounding: Some cell rounding was observed
[9]
  re-dissolution in sterile water: re-dissolved in sterile water without any difficulty
